The results in this text go back to patent US20030100109A1, “Methods and compositions for in vitro germination and propagation of polygonatum cirrhifolium royle” (priority 2001, published 2003).

The subject of the test is Polygonatum cirrhifolium Royle seeds. In words: Induction of germination (hypocotyl emergence) on modified MS medium with GA3 at 30° C. in dark. The test is classed as in vivo. As to conditions: modified MS culture medium; for Percent germination: mean ± S.E. The method, then:
Ripe purplish berries from plants grown in the wild were collected and dehydrated for 15 days at room temperature (29° C.±2° C.). Seeds were collected from dehydrated berries and washed in tap water with 1-2 drops of Tween-20™ for 2 hours and rinsed three times in distilled water. Seeds were then surface sterilized with 0.1% mercuric chloride (HgCl2) for 3 minutes. Mercuric chloride was removed by washing seeds four times in sterile distilled water. Sterilized, rinsed seeds were placed on semi-solid culture medium in sterile disposable plastic Petri plates (10 cm×2 cm). Macro and micro nutrients in the basal medium were that of Murashige and Skoog's (Murashige, T. and Skoog, F. […]. Physiol Plant 15: 433 -497) but modified to contain 2.2 g/L NH4NO3, 2.0 g/L KNO3, 0.44 g/l CaCl2.2H2O, 0.37 g/L MgSO4.7H20, 0.17 g/L KH2PO4, 37.25 mg/L Na2 EDTA, 27.8 mg/L FeSO4.7H20, 0.83 mg/L KI, 6.2 mg/L H3BO3, 22.3 mg/L MnSO4.4H20, 8.6 mg/L ZnSO4.7H20, 0.25 mg/L Na2 MoO4.2H20, 0.025 mg/L CuSO4.5H2O, 0.025 mg/L CoCl2.6H20. This medium was supplemented with 250 mg/L myo-inosital, 0.5 mgl/l nicotinic acid, 0.5 mg/L pyridoxine HCl, 3 mg/L thiamine HCl, 2 mg/L glycine, 30 g/L sucrose, 7.5 g/L agar and 2, 10, 25, and 50 mg/L gibberellic acid. The pH of the medium was adjusted to 5.8 before adding agar. Medium was sterilized at 121° C. (15 lb. psi pressure) for 20 minutes. […] Seeds with emerged hypocotyl were transferred under aseptic conditions to the above defined basal culture medium containing gibberellic acid at 5, 25, 50 and 100 mg/L. Transferred plants were incubated in an environment having 8-16-hr days under about 2000 lux of light and about 8-16-hr nights in total darkness at a constant temperature of 20° C. ([…]) and at 50-60% RH. Illumination was provided by 40-watt cool, white fluorescent tubes. Germination synchronization as indicated by differentiated epicotyl with emergent coleoptile and radicle was recorded on daily basis. Tables 1 and 2 show the induction of germination as indicated by the emergence of hypocotyl at temperature of 30° C. (±2° C.; dark; RH 50-60%) and diurnal temperature of 30/20° C. (±2° C.; dark; RH 50-60%). Experiment consisted of 4 treatments in the form of varying levels of GA3 (2, 10, 25 and 50 mg/L) supplemented to culture medium consisting of 2.2 g/L NH4NO3, 2.0 g/L KNO3, 0.44 g/l CaCl2.2H2O, 0.37 g/L MgSO4.7H20, 0.17 g/L KH2PO4, 37.25 mg/L Na2 EDTA, 27.8 mg/L FeSO4.7H20, 0.83 mg/L KI, 6.2 mg/L H3BO3, 22.3 mg/L MnSO4.4H20, 8.6 mg/L ZnSO4.7H20, 0.25 mg/L Na2 MoO4.2H20, 0.025 mg/L CuSO4.5H2O, 0.025 mg/L CoCl2.6H20, 250 mg/L myo-inositol, 0.5 mg/L nicotinic acid, 0.5 mg/L pyridoxine HCl, 3 mg/L thiamine HCl, 2 mg/L glycine, 30 g/L sucrose and 7.5 g/L agar. Each treatment consisted of 15 replicates with 5 seeds in each. These were incubated at a constant temperature of 30° C. under continuous darkness at a RH of 60%. With the increase in GA3 concentration, there is concomitant increase in germination (Table 1). Maximum germination of 98.53% was obtained at 25 mg/L of GA3. Germination extended from 24-61 days (maximum duration) at 2 mg/L of GA3 and 7-23 days (minimum duration) at 50 mg/L of GA3 respectively.

Where “and” joins values, the source holds several entries; their conditions need not be identical. Identical values can stand only once.

Take `C=C1C[C@]23C[C@@]1(O)CC[C@H]2[C@@]12C=C[C@H](O)[C@@](C)(C(=O)O1)[C@H]2[C@@H]3C(=O)O` [GA3, gibberellic acid]: the Duration of germination by setting is: (GA3 2 mg/L) 24 to 61 days; (GA3 10 mg/L) 19 to 53 days; (GA3 25 mg/L) 11 to 30 days; (GA3 50 mg/L) 7 to 23 days. Further, the Percent germination is, setting by setting: (GA3 2 mg/L) 23.69 ± 7.04 %; (GA3 10 mg/L) 66.18 ± 4.77%; (GA3 25 mg/L) 98.53% and 98.53 ± 3.82%; (GA3 50 mg/L) 97.11 ± 4.01%.
